From ChEMBL document CHEMBL1149053, “beta-Carbolines from the blue-green alga Dichothrix baueriana” (J Nat Prod, 1994)
Values after ≈ are worked out from the molar mass of the structure shown.

Experiments:
LoVo = experiment: Cytotoxicity against human LoVo cells; format: functional, cell-based
Human alphaherpesvirus 2 = experiment: Antiviral activity against HSV2 clinical isolate; format: functional

Row | Compound | IC50 (LoVo) | IC90 (Human alphaherpesvirus 2)
1 | Cn1c2cnccc2c2ccc(Cl)cc21 [BAUERINE A] | 3 µg/mL (≈ 13.8 µM) | 2 µg/mL (≈ 9.23 µM)
2 | Cn1c2cnccc2c2ccc(Cl)c(Cl)c21 [BAUERINE B] | 5 µg/mL (≈ 19.9 µM) | 3 µg/mL (≈ 11.9 µM)
3 | Cn1c2c(Cl)c(Cl)ccc2c2cc[nH]c(=O)c21 [BAUERINE C] | 0.03 µg/mL (≈ 0.112 µM) | 2.5 µg/mL (≈ 9.36 µM)
